Results as given in patent US12247045B2, “MAP4K4 inhibitors” (Imperial College Innovations Limited, priority 2018, dated 2025).

Molecular target: T1, human MAP4K4 kinase domain (Homo sapiens, UniProt O95819)
T1 construct: 0.5 nM human MAP4K4 kinase domain (Invitrogen); purchased Invitrogen
Experiment: MAP4K4 kinase activity, CisBio HTRF Transcreener ADP assay
Format: biochemical
Conditions: IC50 category; ATP at Km (10 μM), 0.5 nM kinase domain, 2 h; read-out: MAP4K4
From the text: Compounds of the present invention were screened for their inhibitory activity against MAP4K4, versus selected off-target hits found with early members of this chemical series. MAP4K4 kinase activity was monitored using the CisBio HTRF Transcreener ADP assay, a competitive immunoassay with a reproducible Z′>0.6. In the detection step, endogenous ADP and d2-labeled ADP compete for binding an anti-ADP monoclonal antibody labelled with Eu^3+ cryptate. A ratiometric fluorescent read-out is used at 665 and 620 nm. Reactions were performed in the presence of 1% DMSO with ATP added at Km (10 μM), 0.5 nM human MAP4K4 kinase domain (Invitrogen), 1 μM biotin-myelin basic protein as substrate (Invitrogen), and extension of reaction time to 2 h. Assays were run in Greiner low volume plates with a final reaction volume of 10 μl. The MAP4K4 inhibition data are provided in Table 41 below for selected compounds of the present invention. The data has been categorised based on the IC50 value of the compound as “A”, “B” or “C”. IC50: A≤100 nM; 100 nM<B≤1 μM; 1 μM<C; nd=not determined.

T1 sequence (O95819 25-289 limits assumed): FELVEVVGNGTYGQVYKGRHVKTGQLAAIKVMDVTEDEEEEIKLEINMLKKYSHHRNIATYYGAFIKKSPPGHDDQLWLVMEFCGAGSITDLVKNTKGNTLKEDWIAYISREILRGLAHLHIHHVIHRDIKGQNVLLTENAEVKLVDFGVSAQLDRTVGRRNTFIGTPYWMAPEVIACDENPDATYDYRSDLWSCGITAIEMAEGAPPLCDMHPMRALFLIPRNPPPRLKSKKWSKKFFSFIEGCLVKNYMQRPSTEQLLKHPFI

Structure (SMILES)	IC50
O=c1[nH]cnc2c1c(-c1cnc(N3CC(O)C3)nc1)cn2-c1cccnc1 [Ex-37]	> 1000 nM
CC(C)(O)CCNc1ccc(-c2cn(-c3ccccc3)c3nc[nH]c(=O)c23)cn1 [Ex-94, 5-[6-[(3-hydroxy-3-methyl-butyl)amino]-3-pyridyl]-7-phenyl-3H-pyrrolo[2,3-d]pyrimidin-4-one]	≤ 100 nM
CC(=O)Nc1ccc(-c2cn(-c3ccccc3)c3nc[nH]c(=O)c23)cn1 [Ex-6]	≤ 100 nM
O=c1[nH]cnc2c1c(-c1cnn(CCO)c1)cn2-c1ccc(F)cc1 [Ex-55, 7-(4-fluorophenyl)-5-(1-(2-hydroxyethyl)-1H-pyrazol-4-yl)-3,7-dihydro-4H-pyrrolo[2,3-d]pyrimidin-4-one]	100 to 1000 nM
O=c1[nH]cnc2c1c(-c1ccc(OCC3(CO)COC3)cc1)cn2-c1cccnc1 [Ex-79]	≤ 100 nM
CC(C)(CO)COc1ccc(-c2cn(-c3cccnc3)c3nc[nH]c(=O)c23)cc1 [Ex-92]	≤ 100 nM
CC(C)(O)CCOc1ccc(-c2cn(-c3cccnc3)c3nc[nH]c(=O)c23)cc1F [Ex-73]	≤ 100 nM
COCCn1cc(-c2cn(-c3cccc(F)c3)c3nc[nH]c(=O)c23)cn1 [Ex-20]	≤ 100 nM
O=c1[nH]cnc2c(-c3ccncc3)cn(-c3ccccc3)c12 [Ex-119, 5-Phenyl-7-pyridin-4-yl-3,5-dihydro-pyrrolo[3,2-d]pyrimidin-4-one]	100 to 1000 nM
COCCCn1cc(-c2cn(-c3ccccc3)c3nc[nH]c(=O)c23)cn1 [Ex-64]	≤ 100 nM
CN(C)CCCOc1ccc(-c2cn(-c3cccnc3)c3nc[nH]c(=O)c23)cc1 [Ex-33]	≤ 100 nM
O=c1[nH]cnc2c(-c3ccc(NC4CC4)nc3)cn(-c3ccccc3)c12 [Ex-135]	> 1000 nM
CC(C)(O)COc1ccc(-c2cn(-c3ccncc3)c3nc[nH]c(=O)c23)cc1 [Ex-68, 5-(4-(2-hydroxy-2methylpropoxy)phenyl)-7-(pyridine-4-yl)-3,7-dihydro-4H-pyrrolo[2,3-d]pyrimidin-4-one]	≤ 100 nM
O=c1[nH]cnc2c1c(-c1cnc(NCCO)nc1)cn2-c1ccccc1 [Ex-49]	≤ 100 nM
O=c1[nH]cnc2c(-c3ccnnc3)cn(-c3ccccc3)c12 [Ex-116]	100 to 1000 nM
O=c1[nH]cnc2c(-c3cccc4cn[nH]c34)cn(-c3ccccc3)c12 [Ex-117]	100 to 1000 nM
CC(C)(N)CCOc1ccc(-c2cn(-c3cccnc3)c3nc[nH]c(=O)c23)cc1 [Ex-111]	100 to 1000 nM
CC(C)(O)C(O)COc1ccc(-c2cn(-c3cccnc3)c3nc[nH]c(=O)c23)cc1 (stereo not drawn) [Ex-81]	≤ 100 nM
COc1ccc(-c2cn(-c3ccccc3)c3nc[nH]c(=O)c23)nc1 [Ex-105]	100 to 1000 nM
COc1cnc(-c2cn(-c3ccccc3)c3nc[nH]c(=O)c23)cn1 [Ex-107]	100 to 1000 nM
CC(C)(O)COc1ccc(-c2cn(-c3ccccc3)c3nc[nH]c(=O)c23)cn1 [Ex-46]	≤ 100 nM
Nc1ncccc1-c1cn(-c2ccccc2)c2c(=O)[nH]cnc12 [Ex-126]	> 1000 nM
O=c1[nH]cnc2c(-c3ccccc3)cn(-c3cncc(F)c3)c12 [Ex-44]	≤ 100 nM
CC(C)(O)CCOc1ccc(-c2cn(-c3cccnc3)c3nc[nH]c(=O)c23)c(F)c1 [Ex-72]	≤ 100 nM
Cn1ccc(-c2cn(-c3ccccc3)c3nc[nH]c(=O)c23)n1 [Ex-25]	> 1000 nM
COC(COc1ccc(-c2cn(-c3cccnc3)c3nc[nH]c(=O)c23)cc1)CN1CCOCC1 (stereo not drawn) [Ex-34]	≤ 100 nM

Structure (SMILES)	IC50
O=c1[nH]cnc2c(-c3ccc4cn[nH]c4c3)cn(-c3ccccc3)c12 [Ex-139, 7-(1H-Indazol-6-yl)-5-phenyl-3,5-dihydro-pyrrolo[3,2-d]pyrimidin-4-one]	100 to 1000 nM
O=c1[nH]cnc2c1c(-c1ccc[nH]1)cn2-c1ccccc1 [Ex-56, 7-Phenyl-5-(1H-pyrrol-2-yl)-3,7-dihydro-pyrrolo[2,3-d]pyrimidin-4-one]	≤ 100 nM
COCCOc1ccc(-c2cn(-c3cccnc3)c3ncn(COP(=O)(O)O)c(=O)c23)cc1 [Ex-103]	> 1000 nM
O=C(C1CC1)N1CC(n2cc(-c3cn(-c4cccc(F)c4)c4nc[nH]c(=O)c34)cn2)C1 [Ex-15]	≤ 100 nM
COCCNc1ccc(-c2cn(-c3cccc(F)c3)c3nc[nH]c(=O)c23)cn1 [Ex-30]	≤ 100 nM
O=c1[nH]cnc2c1c(-c1cnn(CCO)c1)cn2-c1cccc(F)c1 [Ex-59]	≤ 100 nM
O=c1[nH]cnc2c1c(-c1ccc(OCCC3(O)COC3)cc1)cn2-c1cccnc1 [Ex-91]	≤ 100 nM
CC(C)(N)COc1ccc(-c2cn(-c3cccnc3)c3nc[nH]c(=O)c23)cc1 [Ex-110]	100 to 1000 nM
Cn1cnc2cccc(-c3cn(-c4ccccc4)c4c(=O)[nH]cnc34)c21 [Ex-129]	> 1000 nM
Nc1ccc(-c2cn(-c3ccccc3)c3nc[nH]c(=O)c23)cn1 [Ex-9]	≤ 100 nM
COc1ccc(-c2cn(-c3ccccc3)c3nc[nH]c(=O)c23)nn1 [Ex-104, 5-(6-Methoxy-pyridazin-3-yl)-7-phenyl-3,7-dihydro-pyrrolo[2,3-d]pyrimidin-4-one]	> 1000 nM
COc1cc(-c2cn(-c3ccccc3)c3c(=O)[nH]cnc23)ccn1 [Ex-127]	100 to 1000 nM
CNCCC(=O)Nc1ccc(-c2cn(-c3ccncc3)c3nc[nH]c(=O)c23)cc1 [Ex-10]	100 to 1000 nM
Cc1ccc(-c2cn(-c3ccccc3)c3c(=O)[nH]cnc23)cn1 [Ex-131]	> 1000 nM
O=c1[nH]cnc2c1c(-c1ccccn1)cn2-c1ccccc1 [Ex-106]	> 1000 nM
CC(C)(O)CCOc1ccc(-c2cn(-c3ccccc3)c3nc[nH]c(=O)c23)cn1 [Ex-75]	≤ 100 nM
O=c1[nH]cnc2c1c(-c1ccc(OCC3(CO)COC3)cc1)cn2-c1ccncc1 [Ex-76]	≤ 100 nM
CC(C)(O)CCOc1ccc(-n2cc(-c3cccnc3)c3nc[nH]c(=O)c32)cc1 [Ex-125, 5-(4-(3-hydroxy-3-methylbutoxy)phenyl)-7-(pyridin-3-yl)-3,5-dihydro-4H-pyrrolo[3,2-d]pyrimidin-4-one]	≤ 100 nM
Nc1ccc(-c2cn(-c3ccccc3)c3c(=O)[nH]cnc23)cn1 [Ex-138, 7-(6-aminopyridin-3-yl)-5-phenyl-3,5-dihydro-4H-pyrrolo[3,2-d]pyrimidin-4-one]	≤ 100 nM
O=c1[nH]cnc2c1c(-c1cnc(N3CC(CO)C3)nc1)cn2-c1ccccc1 [Ex-51]	100 to 1000 nM
CC(=O)N1CC(n2cc(-c3cn(-c4ccc(F)cc4)c4nc[nH]c(=O)c34)cn2)C1 [Ex-3, 5-[1-(1-Acetyl-azetidin-3-yl)-1H-pyrazol-4-yl]-7-(4-fluoro-phenyl)-3,7-dihydro-pyrrolo[2,3-d]pyrimidin-4-one]	100 to 1000 nM
O=c1[nH]cnc2c(-c3cccnc3)cn(-c3ccccc3)c12 [Ex-124]	100 to 1000 nM
CC(C)(C)OC(=O)N1CC(n2cc(-c3cn(-c4ccccc4)c4nc[nH]c(=O)c34)cn2)C1 [Ex-65, 3-[4-(4-oxo-7-phenyl-4,7-dihydro-3H-pyrrolo[2,3-d]pyrimidin-5-yl)-pyrazol-1-yl]-azetidine-1-carboxylic acid tert-butyl ester]	≤ 100 nM
Cc1noc(C)c1-c1cn(-c2ccccc2)c2nc[nH]c(=O)c12 [Ex-7]	> 1000 nM
CC(C)(O)CCOc1ccc(-c2cn(-c3cncc(F)c3)c3nc[nH]c(=O)c23)cc1 [Ex-84]	100 to 1000 nM
